“And” between values parts separate entries of the source, which are not always exact repeats. Identical values can stand only once.
Experiments:
[1] = target: CYP3A4 (Homo sapiens, UniProt P08684); test: Metabolism in transgenic HEK293 cells expressing CYP3A4; conditions: 24 h; for Quantification of metabolites generated from PCB28, 52, and 101: 20 µM parent PCB, supernatant
Experimental: (§1) For the generation of transgenic cell lines, we used semi-adherent HEK293 cells (DSMZ, ACC305, human embryonic kidney cells) which were cultured on a daily basis in DMEM medium supplemented with 10% (FCS) and 1% penicillin/streptomycin. In a first step CYP1A2, CYP2C8, CYP2C9, CYP3A4, CYP2A6, and CYP2E1 cDNA were cloned into the plasmid pcDNATM3.1/V5-His TOPO® using human liver RNA as a template and using the following primers: CYP1A2 for5′-[…]-3′, CYP1A2 rev 5′-[…]-3′; CYP2C8 for 5′-[…]-3′, CYP2C8 rev 5′-[…]-3′; CYP2C9 for 5′-[…]-3′, CYP2C9 rev 5′-[…]-3′; CYP3A4 for 5′-[…]-3′, CYP3A4 rev 5′-[…]-3′, CYP2A6 for 5′-[…]-3′, CYP2A6 rev 5′-[…]-3′; CYP2E1 for 5′-[…]-3′, CYP2E1 rev 5′-[…]-3′. Final constructs were verified with Sanger DNA sequencing and restriction digestion. For transfection, 3 × 10^6 HEK293 cells were pre-incubated in a 10 cm dish in DMEM medium with 10% FCS, but without antibiotics, for 18 to 24 h. When the cells reached approximately 70% confluency, they were transfected using TransIT-LT1 transfection reagent (Biozol, Eiching, Germany). The TransIT-LT1 reagent was warmed to room temperature and vortexed. 1.63 mL Opti-MEM, 16.25 µL plasmid DNA (1 µg/µL), and 48.75 µL TransIT-LT1 reagent were mixed and incubated for 15 to 30 min. The mixture was then added dropwise to the medium of the cells, and the cells were incubated again at 37 °C and 5% CO2. After 24 h, the medium was replaced with standard medium and geneticin was added for selection (1 mg/mL). Cells were selected for 6–8 weeks in bulk culture, and single cell clones were obtained subsequently by limiting dilution. Each clone was checked for insertion by PCR using genomic DNA as a template.
(§2) Parallel samples were run without the addition of PCBs. At a confluence of 80%, PCBs (20 μM each, dissolved in ethanol) were added and cells were incubated for 24 h before harvest of supernatants. Supernatants were diluted 1:2 with 80 μL acetate buffer 0.1 M (pH = 5.3). 100 μL of this dilution were further incubated with 100 μL of ammonium acetate buffer 0.1 M (pH = 5.3) and 5 μL of β-Glucuronidase/Arylsulfatase enzyme overnight in a drying oven at 37 °C for enzymatic hydrolysis to release conjugated compounds. 50 μL of a mix of internal standards (10 ng/mL) and 600 μL of methanol were added to the samples, then mixed by vortexing for 1 min and centrifuged for 10 min at 3400g. The individual supernatants were transferred to glass LC vials and evaporated to approximately 50 μL at 45 °C under a gentle stream of nitrogen. Finally, 0.1 mol/ L ammonium acetate buffer was added to a final volume of 100 μL and then transferred to an insert for analysis.
(§3) HEK293 cells overexpressing the respective CYP enzymes were seeded onto 6-well plates and were treated with or without 10 µM of the respective probe drug in DMEM medium for 24 hours at 37 °C and 5 % CO2. After incubation 200 µL DMEM were collected, cells were washed with PBS and adherent cells were lysed in 500 µL methanol for 20 minutes. Analytes were measured by LC-MS/MS either in methanol cell lysates or in DMEM supernatant.
(§4) 50 µL of DMEM samples were protein precipitated by adding 200 µL of methanol and were centrifuged for 20 min, 17,000 g and 4°C. Supernatants were diluted in water or 40 % methanol according to dilution factor. Methanol cell lysates were diluted ½ with water and centrifuged for 20 min, 17,000 g and 4°C. 5 µL of the processed samples were injected for LC-MS analysis.

[2] = target: CYP2E1 (Homo sapiens, UniProt P05181); test: Metabolism in transgenic HEK293 cells expressing CYP2E1; conditions: 20 µM parent PCB, 24 h, supernatant
Experimental: as §1, §2, §3, §4

[3] = target: T1, CYP2A6 (Homo sapiens, UniProt P11509); test: Metabolism in transgenic HEK293 cells expressing CYP2A6; format: in vitro ADME; set-up: V5-His (vector-encoded) (C); expressed in transfected cells; conditions: 24 h; for Quantification of metabolites generated from PCB28, 52, and 101 / Metabolite concentration formed, range across cell clones: 20 µM parent PCB; for Quantification of metabolites generated from PCB28, 52, and 101: supernatant; for Metabolite concentration formed, range across cell clones: HEK293CYP2A6 cell lines
T1 sequence (P11509 1-494): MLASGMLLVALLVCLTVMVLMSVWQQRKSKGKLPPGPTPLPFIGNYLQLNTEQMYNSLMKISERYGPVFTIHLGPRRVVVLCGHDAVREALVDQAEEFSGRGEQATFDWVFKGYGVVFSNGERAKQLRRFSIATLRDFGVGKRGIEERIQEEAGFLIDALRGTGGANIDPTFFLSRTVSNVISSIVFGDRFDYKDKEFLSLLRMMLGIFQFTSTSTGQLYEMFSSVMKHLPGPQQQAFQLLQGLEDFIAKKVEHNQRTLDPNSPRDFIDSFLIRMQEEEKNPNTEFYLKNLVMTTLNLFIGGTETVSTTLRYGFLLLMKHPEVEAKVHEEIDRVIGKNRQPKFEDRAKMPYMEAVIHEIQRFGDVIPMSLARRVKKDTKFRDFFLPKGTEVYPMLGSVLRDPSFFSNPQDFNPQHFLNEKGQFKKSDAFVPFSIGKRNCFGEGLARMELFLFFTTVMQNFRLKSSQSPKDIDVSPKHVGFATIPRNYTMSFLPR
Experimental: as §1, §2, §3, §4

[4] = PCB concentrations in plasma of HELPcB participants (2010); format: in vivo, human; conditions: sample of 2010; for concentration at 2010 calendar year / concentration at 2010 calendar year of sampling: human, plasma, other: occupational exposure

Chain of CYP3A4 (P08684 whole entry): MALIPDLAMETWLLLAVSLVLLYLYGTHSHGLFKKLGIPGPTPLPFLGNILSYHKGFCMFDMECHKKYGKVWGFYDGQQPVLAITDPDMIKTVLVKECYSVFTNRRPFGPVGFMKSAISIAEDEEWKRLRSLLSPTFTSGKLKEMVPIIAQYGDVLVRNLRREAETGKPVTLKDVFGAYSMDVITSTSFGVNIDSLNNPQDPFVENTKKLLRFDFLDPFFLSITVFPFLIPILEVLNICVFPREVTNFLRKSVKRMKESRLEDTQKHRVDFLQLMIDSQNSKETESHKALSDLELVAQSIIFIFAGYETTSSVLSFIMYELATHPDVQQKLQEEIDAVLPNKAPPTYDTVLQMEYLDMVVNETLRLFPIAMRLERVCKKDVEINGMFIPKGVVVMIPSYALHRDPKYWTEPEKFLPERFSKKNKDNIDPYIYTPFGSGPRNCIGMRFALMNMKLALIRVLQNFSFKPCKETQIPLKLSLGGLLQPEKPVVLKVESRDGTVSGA
Chain of CYP2E1 (P05181 whole entry): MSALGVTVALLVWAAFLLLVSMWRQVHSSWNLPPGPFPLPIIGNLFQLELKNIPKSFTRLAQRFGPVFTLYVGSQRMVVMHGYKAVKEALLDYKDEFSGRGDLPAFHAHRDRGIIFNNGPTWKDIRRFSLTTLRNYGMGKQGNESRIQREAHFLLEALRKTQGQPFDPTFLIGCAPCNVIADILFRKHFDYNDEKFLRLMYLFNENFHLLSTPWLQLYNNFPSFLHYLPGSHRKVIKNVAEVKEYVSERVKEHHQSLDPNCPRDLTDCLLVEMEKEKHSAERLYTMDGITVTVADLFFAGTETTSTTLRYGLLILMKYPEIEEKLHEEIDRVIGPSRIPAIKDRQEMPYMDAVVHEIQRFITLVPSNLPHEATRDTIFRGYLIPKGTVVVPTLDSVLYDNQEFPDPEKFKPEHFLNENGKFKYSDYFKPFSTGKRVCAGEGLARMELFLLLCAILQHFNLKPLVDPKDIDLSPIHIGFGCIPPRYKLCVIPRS

Structure (SMILES): Oc1cc(Cl)cc(-c2cc(Cl)c(Cl)cc2Cl)c1Cl [3´-OHCB101, 2,2′,4,5,5′-pentachloro-3′-biphenylol]
- Quantification of metabolites generated from PCB28, 52, and 101 ([1]; CYP3A4 Clone D10): <LOQ
- Quantification of metabolites generated from PCB28, 52, and 101 ([1]; CYP3A4 Clone E6): <LOQ
- Quantification of metabolites generated from PCB28, 52, and 101 ([2]; CYP2E1 Clone B4): <LOQ
- Quantification of metabolites generated from PCB28, 52, and 101 ([2]; CYP2E1 Clone B5): <LOQ
- Quantification of metabolites generated from PCB28, 52, and 101 ([2]; CYP2E1 Clone E6): <LOQ
- Quantification of metabolites generated from PCB28, 52, and 101 ([3]; CYP2A6 Clone B7): 39,4 nM
- Quantification of metabolites generated from PCB28, 52, and 101 ([3]; CYP2A6 Clone C4): 24,09 nM
- Quantification of metabolites generated from PCB28, 52, and 101 ([3]; CYP2A6 Clone C5): 4,2 nM
- Metabolite concentration formed, range across cell clones [3]: 1.44–13.5 µg/L and 4.2–39.4 nM

Structure (SMILES): Cc1ncc2n1-c1ccc(Cl)cc1C(c1ccccc1F)=NC2 [Midazolam, reference compound]
- Conversion product ([1]; HEK293CYP3A4, 10 µM substrate): 1-hydroxy-midazolam

Structure (SMILES): Clc1cc(Cl)c(-c2ccc(Cl)c(Cl)c2Cl)cc1Cl [PCB138]
- Concentration in plasma ([4]; HELPcB participant AD): 0.984 ng/mL
- Concentration in plasma ([4]; HELPcB participant AE): 0.773 ng/mL
- Concentration in plasma ([4]; HELPcB participant eight): 0.358 ng/mL
- Concentration in plasma ([4]; HELPcB participant five): 1.886 ng/mL
- Concentration in plasma ([4]; HELPcB participant four): 0.610 ng/mL
- Concentration in plasma ([4]; HELPcB participant one): 2.083 ng/mL
- Concentration in plasma ([4]; HELPcB participant seven): 0.738 ng/mL
- Concentration in plasma ([4]; HELPcB participant six): 14.883 ng/mL
- Concentration in plasma ([4]; HELPcB participant three): 1.047 ng/mL
- Concentration in plasma ([4]; HELPcB participant two): 0.718 ng/mL

Structure (SMILES): Oc1cc(Cl)c(-c2cc(Cl)c(Cl)cc2Cl)cc1Cl [4´-OHCB101, 2,2′,4,5,5′-Pentachloro-4′-biphenylol]
- Quantification of metabolites generated from PCB28, 52, and 101 ([1]; CYP3A4 Clone D10): <LOQ
- Quantification of metabolites generated from PCB28, 52, and 101 ([1]; CYP3A4 Clone E6): <LOQ
- Quantification of metabolites generated from PCB28, 52, and 101 ([2]; CYP2E1 Clone B4): 3,84 nM
- Quantification of metabolites generated from PCB28, 52, and 101 ([2]; CYP2E1 Clone B5): 4,02 nM
- Quantification of metabolites generated from PCB28, 52, and 101 ([2]; CYP2E1 Clone E6): 5,08 nM
- Quantification of metabolites generated from PCB28, 52, and 101 ([3]; CYP2A6 Clone B7): 441,30 nM
- Quantification of metabolites generated from PCB28, 52, and 101 ([3]; CYP2A6 Clone C4): 272,55 nM
- Quantification of metabolites generated from PCB28, 52, and 101 ([3]; CYP2A6 Clone C5): 55,93 nM
- Metabolite concentration formed, range across cell clones [3]: 19.15- 151.1 µg/L and 55.93–441.3 nM

Structure (SMILES): Clc1cc(Cl)c(-c2cc(Cl)c(Cl)cc2Cl)cc1Cl [PCB153]
- Concentration in plasma ([4]; HELPcB participant AD): 1.397 ng/mL
- Concentration in plasma ([4]; HELPcB participant AE): 1.227 ng/mL
- Concentration in plasma ([4]; HELPcB participant eight): 0.59 ng/mL
- Concentration in plasma ([4]; HELPcB participant five): 1.765 ng/mL
- Concentration in plasma ([4]; HELPcB participant four): 0.855 ng/mL
- Concentration in plasma ([4]; HELPcB participant one): 1.907 ng/mL
- Concentration in plasma ([4]; HELPcB participant seven): 1.081 ng/mL
- Concentration in plasma ([4]; HELPcB participant six): 15.630 ng/mL
- Concentration in plasma ([4]; HELPcB participant three): 1.254 ng/mL
- Concentration in plasma ([4]; HELPcB participant two): 0.945 ng/mL

Structure (SMILES): Clc1cc(Cl)c(-c2cc(Cl)c(Cl)c(Cl)c2Cl)cc1Cl [PCB180]
- concentration at 2010 calendar year ([4]; HELPcB participant AD): 1.16 ng/mL
- concentration at 2010 calendar year ([4]; HELPcB participant AE): 1.28 ng/mL
- concentration at 2010 calendar year ([4]; HELPcB participant eight): 0.377 ng/mL
- concentration at 2010 calendar year ([4]; HELPcB participant five): 0.951 ng/mL
- concentration at 2010 calendar year ([4]; HELPcB participant four): 0.508 ng/mL
- concentration at 2010 calendar year of sampling ([4]; HELPcB participant one): 0.998 ng/mL
- concentration at 2010 calendar year ([4]; HELPcB participant seven): 0.934 ng/mL
- concentration at 2010 calendar year ([4]; HELPcB participant six): 8.85 ng/mL
- concentration at 2010 calendar year ([4]; HELPcB participant three): 0.95 ng/mL
- concentration at 2010 calendar year of sampling ([4]; HELPcB participant two): 0.612 ng/mL

Structure (SMILES): O=c1ccc2ccccc2o1 [Coumarin, reference compound]
- Conversion product ([3]; HEK293CYP2A6, 10 µM substrate): 7-hydroxycoumarin
